The NIST ThermoML archive (doi:10.1021/je1009619)

Assay: xn = mol fraction of the nth substance listed
Details: Liquid, Vibrating tube method

CC1=CC[C@H]2C[C@@H]1C2(C)C [(S)-2-pinene] + C=C(C)[C@H]1CC=C(C)CC1
mass density [kg/m3]
Details	x2 = 0	x2 = 0.0976	x2 = 0.1991	x2 = 0.2983	x2 = 0.3955	x2 = 0.5036	x2 = 0.5967	x2 = 0.7024	x2 = 0.8084	x2 = 0.906
283.15 K, 20000 kPa	880	878.3	876.4	874.6	872.9	870.9	869.2	867.4	865.3	863.5
283.15 K, 25000 kPa	883.2	881.4	879.3	877.6	875.8	873.8	872.1	870.3	868.3	866.6
283.15 K, 30000 kPa	886.3	884.3	882.4	880.5	878.7	876.7	875.1	873.1	871.3	869.2
283.15 K, 35000 kPa	889.4	887.5	885.4	883.4	881.7	879.7	878	876.1	873.9	871.9
283.15 K, 40000 kPa	892.5	890.4	888.5	886.5	884.7	882.7	880.9	878.9	876.5	874.4
298.15 K, 20000 kPa	868.8	866.9	865.4	863.5	861.7	860	858.4	856.9	855.1	853
298.15 K, 25000 kPa	872.1	870.3	868.6	866.8	865	863.2	861.6	859.8	858	856.1
298.15 K, 30000 kPa	875.3	873.5	871.7	869.8	868.1	866.3	864.7	862.8	861	859.1
298.15 K, 35000 kPa	878.6	876.7	875	873.1	871.3	869.5	867.9	865.9	864.1	862.2
298.15 K, 40000 kPa	881.9	880	878.1	876.3	874.5	872.6	871	869	867.1	865.2
313.15 K, 20000 kPa	858	856.2	854.4	852.6	851	849.2	847.6	845.9	844.1	842.4
313.15 K, 25000 kPa	861.3	859.5	857.7	855.9	854.3	852.5	851	849.2	847.4	845.7
313.15 K, 30000 kPa	864.7	862.8	861.1	859.3	857.6	855.7	854.2	852.4	850.5	848.8
313.15 K, 35000 kPa	867.9	866.2	864.5	862.6	860.9	858.9	857.4	855.6	853.8	852
313.15 K, 40000 kPa	871.3	869.5	867.8	866	864.2	862.2	860.6	858.8	856.9	855.1
328.15 K, 20000 kPa	846.7	845.1	843.4	841.8	840.2	838.4	837	835.3	833.5	832
328.15 K, 25000 kPa	850.4	848.7	847	845.2	843.6	841.9	840.4	838.6	836.9	835.4
328.15 K, 30000 kPa	854	852.3	850.6	848.8	847.2	845.4	843.9	842.1	840.4	838.7
328.15 K, 35000 kPa	857.5	855.8	854	852.3	850.6	848.8	847.3	845.5	843.7	841.9
328.15 K, 40000 kPa	861.1	859.4	857.5	855.8	854.1	852.1	850.6	848.8	847.1	845.3
343.15 K, 20000 kPa	835.9	834.4	832.8	831.2	829.6	827.9	826.5	824.8	823.1	821.6
343.15 K, 25000 kPa	839.7	838.1	836.5	834.9	833.4	831.7	830.2	828.4	826.8	825.2
343.15 K, 30000 kPa	843.8	842.1	840.4	838.8	837.1	835.4	834	832.1	830.4	828.8
343.15 K, 35000 kPa	847.7	846	844.2	842.5	840.9	839.1	837.6	835.9	834.1	832.2
343.15 K, 40000 kPa	851.4	849.6	847.9	846.2	844.5	842.7	841.2	839.5	837.3	835.5
358.15 K, 20000 kPa	825	823.5	822.1	820.7	819.3	817.9	816.5	815.1	813.3	811.5
358.15 K, 25000 kPa	829.2	827.7	826	824.6	823.1	821.6	820.2	818.7	816.9	815.3
358.15 K, 30000 kPa	833.3	831.6	830	828.4	826.9	825.3	823.9	822.2	820.6	818.7
358.15 K, 35000 kPa	837.4	835.7	834	832.2	830.7	829	827.5	825.8	824	822.4
358.15 K, 40000 kPa	841.5	839.7	838	836.2	834.6	832.8	831.2	829.4	827.6	825.9
